This test deals with T1, HIV integrase (Human immunodeficiency virus type 1 group M subtype B, UniProt P12497, F1332H).
T1 construct: HIV integrase full length gene (J. Virol., 67, 425-437 (1993)) in which phenylalanine at codon 185 was substituted by histidine; made in house; host or cells: Escherichia coli BL21(DE3)
As to the kind of experiment: Determination of enzyme (HIV integrase) inhibitory activity. Type of test: biochemical. The following applies: recombinant integrase protein (F185H), donor DNA/target DNA, absorbance at 450 nm. As to the method:
HIV integrase full length gene (J. Virol., 67, 425-437 (1993)) in which phenylalanine at codon 185 was substituted by histidine, was inserted between the restriction enzyme NdeI and XhoI sites of plasmid pET21a(+) (Novagen), whereby an integrase expression vector pET21a-IN-F185H was constructed.
Escherichia coli recombinant BL21(DE3) transformed with plasmid pET21a-IN-F185H obtained in (i) was shake cultured at 30° C. in a liquid medium containing ampicillin. When the culture reached the logarithmic growth phase, isopropyl-β-D-thiogalactopyranoside was added to promote expression of integrase gene. The culture was continued for 3 hr to promote accumulation of the integrase protein. The recombinant E. coli was collected in pellets by centrifugal separation and preserved at −80° C.
The E. coli was suspended in Lysis buffer (20 mM HEPES (pH 7.5), 5 mM DTT, 10 mM CHAPS, 10% glycerol) containing 1M sodium chloride and subjected to repeat pressurization and depressurization for rupture, and centrifugal separation at 4° C., 40,000×g, 60 min to recover a water-soluble fraction (supernatant). This was diluted 10-fold with Lysis buffer free of sodium chloride, mixed with SP-Sepharose (Pharmacia Corporation) and stirred at 4° C. for 60 min to allow adsorption of integrase protein to the resin. The resin was washed with Lysis buffer containing 100 mM sodium chloride and the integrase protein was eluted with Lysis buffer containing 1M sodium chloride.
The eluted integrase protein solution was subjected to a Superdex 75 (Pharmacia Corporation) column for gel filtration. The protein was eluted with Lysis buffer containing 1M sodium chloride.
The obtained fractions of the integrase protein were collected and preserved at −80° C.
The following DNA synthesized by Greiner was dissolved in TE buffer (10 mM Tris-hydrochloric acid (pH 8.0), 1 mM EDTA) and mixed with donor DNA, target DNA, and each complementary strand (+ and − strands) to 1 μM. The mixture was heated at 95° C. for 5 min, 80° C. for 10 min, 70° C. for 10 min, 60° C. for 10 min, 50° C. for 10 min and 40° C. for 10 min and kept at 25° C. to give a double stranded DNA, which was used for the test. Donor DNA ([…] attached to the 5′ terminal) Donor + strand: 5′-Biotin-ACCCTTTTAGTCAGTGTGGAAAATCTCTAGCA-3′ (SEQ ID NO:1) Donor − strand: 5′-ACTGCTAGAGATTTTCCACACTGACTAAAAG-3′ (SEQ ID NO:2) Target DNA (+, − strands both having digoxigenin added at 3′ terminal) Target + strand: 5′-TGACCAAGGGCTAATTCACT-Dig-3′ (SEQ ID NO:3) Target − strand: 5′-AGTGAATTAGCCCTTGGTCA-Dig-3′ (SEQ ID NO:4)
The donor DNA was diluted with TE buffer to 10 nM, of which 50 μl was added to each well of streptavidin-coated microtiter plate (Roche) and allowed to adsorb at 37° C. for 60 min. The plate was washed with phosphate buffer (Dulbecco's PBS, Sanko Junyaku Co., Ltd.) containing 0.1% Tween 20 and phosphate buffer. Then, an enzyme reaction mixture (70 μl), a test substance (10 μl) diluted with the reaction mixture and 100 μg/ml integrase protein (10 μl) were added to each well and reacted at 37° C. for 60 min.
Then, 50 nM target DNA (10 μl) was added, reacted at 37° C. for 10 min and washed with phosphate buffer containing 0.1% Tween 20 to stop the reaction.
Then, 100 mU/ml peroxidase labeled anti-digoxigenin antibody solution (Roche, 100 μl) was added, and the mixture was reacted at 37° C. for 60 min, followed by washing with phosphate buffer containing 0.1% Tween 20.
A peroxidase color solution (Bio Rad, 100 μl) was added and allowed to react at room temperature for 4 min. The color reaction was stopped by adding 1N sulfuric acid (100 μl). The absorbance at 450 nm was measured.
The HIV integrase inhibitory activity (IC50) of the compound of the present invention was calculated from the inhibition rate according to the following formula. […]

Molecules are shown by their SMILES. Counter-ions that a name gives are not always drawn.

In patent publication US7531554B2, “4-oxoquinoline compound and use thereof as HIV integrase inhibitor” (Japan Tobacco Inc., priority 2004, dated 2009) one finds IC50 data, which are given here for 19 molecules.

With `CC(C)[C@@H](CO)n1cc(C(=O)O)c(=O)c2cc(Cc3cccc(Cl)c3F)c(OCCCN(C)C)cc21` [Example 4-6, 6-(3-chloro-2-fluorobenzyl)-7-(3-(dimethylamino)propoxy)-1-((1S)-1-(hydroxymethyl)-2-methylpropyl)-4-oxo-1,4-dihydroquinoline-3-carboxylic acid], the IC50 (as a rule, the point on the concentration scale where inhibition reaches its midpoint) was found to be 6.3 nM.

As for `CC(C)[C@@H](CO)n1cc(C(=O)O)c(=O)c2cc(Cc3cccc(Cl)c3F)c(OCCCCN(C)C)cc21` [Example 4-7, 6-(3-chloro-2-fluorobenzyl)-7-(4-(dimethylamino)butoxy)-1-((1S)-1-(hydroxymethyl)-2-methylpropyl)-4-oxo-1,4-dihydroquinoline-3-carboxylic acid], the IC50 is 5 nM.

For `COCCCOc1cc2c(cc1Cc1cccc(Cl)c1F)c(=O)c(C(=O)O)cn2[C@H](CO)C(C)C` [Example 4-8, 6-(3-chloro-2-fluorobenzyl)-1-((1S)-1-(hydroxymethyl)-2-methylpropyl)-7-(3-methoxypropoxy)-4-oxo-1,4-dihydroquinoline-3-carboxylic acid], the IC50 came to 4.7 nM.

`CC(C)[C@@H](CO)n1cc(C(=O)O)c(=O)c2cc(Cc3cccc(Cl)c3F)c(N3CCOCC3)cc21` [Example 4-9, 6-(3-chloro-2-fluorobenzyl)-1-((1S)-1-(hydroxymethyl)-2-methylpropyl)-7-(morpholin-4-yl)-4-oxo-1,4-dihydroquinoline-3-carboxylic acid]: the IC50 worked out at 6 nM.

In the case of `CC(C)[C@@H](CO)n1cc(C(=O)O)c(=O)c2cc(Cc3cccc(Cl)c3F)c(N3CCN(C)CC3)cc21` [Example 4-10, 6-(3-chloro-2-fluorobenzyl)-1-((1S)-1-(hydroxymethyl)-2-methylpropyl)-7-(4-methylpiperazin-1-yl)-4-oxo-1,4-dihydroquinoline-3-carboxylic acid], the IC50 came to 6.2 nM.

`CC(=O)N1CCN(c2cc3c(cc2Cc2cccc(Cl)c2F)c(=O)c(C(=O)O)cn3[C@H](CO)C(C)C)CC1` [Example 4-11, 7-(4-acetylpiperazin-1-yl)-6-(3-chloro-2-fluorobenzyl)-1-((1S)-1-(hydroxymethyl)-2-methylpropyl)-4-oxo-1,4-dihydroquinoline-3-carboxylic acid]: the IC50 was determined as 6.8 nM.

`CC(C)[C@@H](CO)n1cc(C(=O)O)c(=O)c2cc(Cc3cccc(Cl)c3F)c(N3CCNCC3)cc21` [Example 4-12, 6-(3-chloro-2-fluorobenzyl)-1-((1S)-1-(hydroxymethyl)-2-methylpropyl)-4-oxo-7-(piperazin-1-yl)-1,4-dihydroquinoline-3-carboxylic acid]: the IC50 stood at 7.3 nM.

Take `CC(C)[C@@H](CO)n1cc(C(=O)O)c(=O)c2cc(Cc3cccc(Cl)c3F)c(OCCN3CCCCC3)cc21` [Example 4-13, 6-(3-chloro-2-fluorobenzyl)-1-((1S)-1-(hydroxymethyl)-2-methylpropyl)-4-oxo-7-(2-(piperidin-1-yl)ethoxy)-1,4-dihydroquinoline-3-carboxylic acid]: the IC50 is 6.3 nM.

With `CC(C)[C@@H](CO)n1cc(C(=O)O)c(=O)c2cc(Cc3cccc(Cl)c3F)c(OC3CCN(C)CC3)cc21` [Example 4-14, 6-(3-chloro-2-fluorobenzyl)-1-((1S)-1-(hydroxymethyl)-2-methylpropyl)-7-(1-methylpiperidin-4-yloxy)-4-oxo-1,4-dihydroquinoline-3-carboxylic acid], the half-maximal inhibitory concentration (IC50) is 5.4 nM.

As for `CCN1CCN(c2cc3c(cc2Cc2cccc(Cl)c2F)c(=O)c(C(=O)O)cn3[C@H](CO)C(C)C)CC1` [Example 4-15, 6-(3-chloro-2-fluorobenzyl)-7-(4-ethylpiperazin-1-yl)-1-((1S)-1-(hydroxymethyl)-2-methylpropyl)-4-oxo-1,4-dihydroquinoline-3-carboxylic acid], the IC50 stood at 11 nM.

In the case of `CC(C)[C@@H](CO)n1cc(C(=O)O)c(=O)c2cc(Cc3cccc(Cl)c3F)c(OCCN3CCOCC3)cc21` [Example 4-16, 6-(3-chloro-2-fluorobenzyl)-1-((1S)-1-(hydroxymethyl)-2-methylpropyl)-7-(2-(morpholin-4-yl)ethoxy)-4-oxo-1,4-dihydroquinoline-3-carboxylic acid], the concentration for half-maximal inhibition (IC50) amounted to 7.9 nM.

In the case of `CC(C)[C@@H](CO)n1cc(C(=O)O)c(=O)c2cc(Cc3cccc(Cl)c3F)c(OCCN3CCCC3)cc21` [Example 4-17, 6-(3-chloro-2-fluorobenzyl)-1-((1S)-1-(hydroxymethyl)-2-methylpropyl)-4-oxo-7-(2-(pyrrolidin-1-yl)ethoxy)-1,4-dihydroquinoline-3-carboxylic acid], the IC50 stood at 11 nM.

Turning to `CC(C)[C@@H](CO)n1cc(C(=O)O)c(=O)c2cc(Cc3cccc(Cl)c3F)c(OCCN)cc21` [Example 4-18, 7-(2-aminoethoxy)-6-(3-chloro-2-fluorobenzyl)-1-((1S)-1-(hydroxymethyl)-2-methylpropyl)-4-oxo-1,4-dihydroquinoline-3-carboxylic acid hydrochloride], the IC50 came out at 4.8 nM.

For `CC(C)[C@@H](CO)n1cc(C(=O)O)c(=O)c2cc(Cc3cccc(Cl)c3F)c(OCCCN)cc21` [Example 4-19, 7-(3-aminopropoxy)-6-(3-chloro-2-fluorobenzyl)-1-((1S)-1-(hydroxymethyl)-2-methylpropyl)-4-oxo-1,4-dihydroquinoline-3-carboxylic acid hydrochloride], the IC50 worked out at 4.6 nM.

For `CC(C)[C@@H](CO)n1cc(C(=O)O)c(=O)c2cc(Cc3cccc(Cl)c3F)c(Oc3cccnc3)cc21` [Example 4-20, 6-(3-chloro-2-fluorobenzyl)-1-((1S)-1-(hydroxymethyl)-2-methylpropyl)-4-oxo-7-(pyridin-3-yloxy)-1,4-dihydroquinoline-3-carboxylic acid hydrochloride], the IC50 amounted to 9.3 nM.

As to `CC(C)[C@@H](CO)n1cc(C(=O)O)c(=O)c2cc(Cc3cccc(Cl)c3F)c(N3CCC(O)CC3)cc21` [Example 4-21, 6-(3-chloro-2-fluorobenzyl)-1-((1S)-1-(hydroxymethyl)-2-methylpropyl)-7-(4-hydroxypiperidin-1-yl)-4-oxo-1,4-dihydroquinoline-3-carboxylic acid], the IC50 was 6.6 nM.

Take `CC1CN(c2cc3c(cc2Cc2cccc(Cl)c2F)c(=O)c(C(=O)O)cn3[C@H](CO)C(C)C)CC(C)N1` (stereo partly drawn) [Example 4-22, 6-(3-chloro-2-fluorobenzyl)-7-(3,5-dimethylpiperazin-1-yl)-1-((1S)-1-(hydroxymethyl)-2-methylpropyl)-4-oxo-1,4-dihydroquinoline-3-carboxylic acid]: the IC50 is 7.1 nM.

As for `CC(C)[C@@H](CO)n1cc(C(=O)O)c(=O)c2cc(Cc3cccc(Cl)c3F)c(N3CC[C@@H](O)C3)cc21` [Example 4-23, 6-(3-chloro-2-fluorobenzyl)-1-((1S)-1-(hydroxymethyl)-2-methylpropyl)-7-((3R)-3-hydroxypyrrolidin-1-yl)-4-oxo-1,4-dihydroquinoline-3-carboxylic acid], the IC50 worked out at 27 nM.

For the molecule `CC(C)[C@@H](CO)n1cc(C(=O)O)c(=O)c2cc(Cc3cccc(Cl)c3F)c(N3CC[C@H](O)C3)cc21` [Example 4-24, 6-(3-chloro-2-fluorobenzyl)-1-((1S)-1-(hydroxymethyl)-2-methylpropyl)-7-((3S)-3-hydroxypyrrolidin-1-yl)-4-oxo-1,4-dihydroquinoline-3-carboxylic acid], the IC50 stood at 12 nM.
